Source: patent US11542240B2, “STK19 inhibitors for treatment of cancer” (TRUSTEES OF BOSTON UNIVERSITY, priority 2018, dated 2023)
Read-outs that look alike come from different tables or passages of the source.

Tests used:
Experiment in all cases: biochemical
Assay type in all cases: binding
[1] = molecular target: panel of 468 diverse kinases (Homo sapiens, UniProt O14936); conditions: CASK; 1000 nM; read-out: Percent Control
[2] = molecular target: panel of 468 diverse kinases (Homo sapiens, UniProt O95819); conditions: MAP4K4; 1000 nM; read-out: Percent Control
[3] = molecular target: panel of 468 diverse kinases (Homo sapiens, UniProt P10721); conditions: 1000 nM, read-out: Percent Control
panel of 468 diverse kinases (Homo sapiens, UniProt P10721), sequence (P10721 26-976 limits assumed): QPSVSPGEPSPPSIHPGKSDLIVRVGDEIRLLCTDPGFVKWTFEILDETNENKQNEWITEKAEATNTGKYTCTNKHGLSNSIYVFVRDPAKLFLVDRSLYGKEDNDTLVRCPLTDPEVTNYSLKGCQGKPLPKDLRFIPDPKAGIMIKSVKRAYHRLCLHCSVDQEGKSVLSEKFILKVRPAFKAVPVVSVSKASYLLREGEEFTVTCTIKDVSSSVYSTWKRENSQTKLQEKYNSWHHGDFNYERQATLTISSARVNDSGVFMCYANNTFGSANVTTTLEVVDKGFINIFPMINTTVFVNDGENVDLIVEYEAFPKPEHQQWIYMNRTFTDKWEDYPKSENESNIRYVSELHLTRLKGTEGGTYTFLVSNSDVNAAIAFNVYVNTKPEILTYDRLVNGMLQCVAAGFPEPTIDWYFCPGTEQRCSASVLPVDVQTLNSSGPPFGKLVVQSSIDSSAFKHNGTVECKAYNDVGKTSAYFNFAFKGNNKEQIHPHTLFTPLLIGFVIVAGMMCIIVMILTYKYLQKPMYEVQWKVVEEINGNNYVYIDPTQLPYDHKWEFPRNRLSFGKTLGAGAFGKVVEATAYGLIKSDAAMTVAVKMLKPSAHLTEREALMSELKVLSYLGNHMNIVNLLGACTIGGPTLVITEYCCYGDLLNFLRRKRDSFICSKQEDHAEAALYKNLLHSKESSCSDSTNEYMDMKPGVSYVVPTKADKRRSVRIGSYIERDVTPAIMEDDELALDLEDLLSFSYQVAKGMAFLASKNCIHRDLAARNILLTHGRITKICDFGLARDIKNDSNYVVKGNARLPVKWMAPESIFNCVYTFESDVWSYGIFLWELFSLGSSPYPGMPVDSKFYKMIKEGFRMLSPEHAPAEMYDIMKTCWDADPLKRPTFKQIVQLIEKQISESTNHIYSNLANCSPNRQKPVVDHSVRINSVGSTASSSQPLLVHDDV

[4] = molecular target: panel of 468 diverse kinases (Homo sapiens, UniProt P10721, V559D/V654A); conditions: KIT(V559D,V654A); 1000 nM; read-out: Percent Control
panel of 468 diverse kinases (Homo sapiens, UniProt P10721, V559D/V654A), sequence (P10721 26-976 V559D/V654A limits assumed): as the sequence (P10721 26-976 limits assumed) above, with V534D, V629A counted along it

[5] = molecular target: panel of 468 diverse kinases (Homo sapiens, UniProt P17948); conditions: FLT1; 1000 nM; read-out: Percent Control
panel of 468 diverse kinases (Homo sapiens, UniProt P17948), sequence (P17948 27-1338 limits assumed): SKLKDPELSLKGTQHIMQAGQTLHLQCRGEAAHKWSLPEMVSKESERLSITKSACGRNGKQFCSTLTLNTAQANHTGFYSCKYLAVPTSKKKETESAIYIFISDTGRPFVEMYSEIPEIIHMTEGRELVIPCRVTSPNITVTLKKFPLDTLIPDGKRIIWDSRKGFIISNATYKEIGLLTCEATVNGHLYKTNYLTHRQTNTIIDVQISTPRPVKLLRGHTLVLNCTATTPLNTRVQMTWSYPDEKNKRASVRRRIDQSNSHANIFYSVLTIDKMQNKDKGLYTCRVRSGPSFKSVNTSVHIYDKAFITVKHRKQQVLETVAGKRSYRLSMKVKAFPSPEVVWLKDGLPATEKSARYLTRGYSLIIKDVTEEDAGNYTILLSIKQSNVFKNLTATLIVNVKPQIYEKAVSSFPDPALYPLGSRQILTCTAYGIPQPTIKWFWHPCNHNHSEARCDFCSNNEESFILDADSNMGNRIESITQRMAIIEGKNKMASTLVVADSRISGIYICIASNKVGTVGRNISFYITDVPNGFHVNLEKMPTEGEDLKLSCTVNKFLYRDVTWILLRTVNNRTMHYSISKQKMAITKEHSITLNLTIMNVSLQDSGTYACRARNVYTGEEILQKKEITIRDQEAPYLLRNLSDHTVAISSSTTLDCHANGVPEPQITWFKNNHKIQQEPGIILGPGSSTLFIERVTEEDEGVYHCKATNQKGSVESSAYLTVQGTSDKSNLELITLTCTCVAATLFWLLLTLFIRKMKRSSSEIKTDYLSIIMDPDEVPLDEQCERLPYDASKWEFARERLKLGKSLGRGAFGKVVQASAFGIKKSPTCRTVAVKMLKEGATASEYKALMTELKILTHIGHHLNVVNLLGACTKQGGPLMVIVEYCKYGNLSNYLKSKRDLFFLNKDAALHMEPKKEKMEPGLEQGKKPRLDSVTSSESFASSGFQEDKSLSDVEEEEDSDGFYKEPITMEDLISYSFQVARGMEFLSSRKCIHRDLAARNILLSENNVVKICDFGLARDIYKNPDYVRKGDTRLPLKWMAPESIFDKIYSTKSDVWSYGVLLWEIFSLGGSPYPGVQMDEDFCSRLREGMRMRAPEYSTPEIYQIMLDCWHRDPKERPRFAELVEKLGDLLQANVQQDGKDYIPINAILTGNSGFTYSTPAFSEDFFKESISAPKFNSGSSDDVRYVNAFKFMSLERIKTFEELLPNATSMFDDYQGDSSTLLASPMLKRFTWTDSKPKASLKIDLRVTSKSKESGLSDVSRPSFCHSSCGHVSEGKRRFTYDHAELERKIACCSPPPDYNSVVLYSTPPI

[6] = molecular target: panel of 468 diverse kinases (Homo sapiens, UniProt P21127); conditions: CDC2L1; 1000 nM; read-out: Percent Control
[7] = molecular target: panel of 468 diverse kinases (Homo sapiens, UniProt P27448); conditions: MARK3; 1000 nM; read-out: Percent Control
[8] = molecular target: panel of 468 diverse kinases (Homo sapiens, UniProt P29317); conditions: EPHA2; 1000 nM; read-out: Percent Control
panel of 468 diverse kinases (Homo sapiens, UniProt P29317), sequence (P29317 24-976 limits assumed): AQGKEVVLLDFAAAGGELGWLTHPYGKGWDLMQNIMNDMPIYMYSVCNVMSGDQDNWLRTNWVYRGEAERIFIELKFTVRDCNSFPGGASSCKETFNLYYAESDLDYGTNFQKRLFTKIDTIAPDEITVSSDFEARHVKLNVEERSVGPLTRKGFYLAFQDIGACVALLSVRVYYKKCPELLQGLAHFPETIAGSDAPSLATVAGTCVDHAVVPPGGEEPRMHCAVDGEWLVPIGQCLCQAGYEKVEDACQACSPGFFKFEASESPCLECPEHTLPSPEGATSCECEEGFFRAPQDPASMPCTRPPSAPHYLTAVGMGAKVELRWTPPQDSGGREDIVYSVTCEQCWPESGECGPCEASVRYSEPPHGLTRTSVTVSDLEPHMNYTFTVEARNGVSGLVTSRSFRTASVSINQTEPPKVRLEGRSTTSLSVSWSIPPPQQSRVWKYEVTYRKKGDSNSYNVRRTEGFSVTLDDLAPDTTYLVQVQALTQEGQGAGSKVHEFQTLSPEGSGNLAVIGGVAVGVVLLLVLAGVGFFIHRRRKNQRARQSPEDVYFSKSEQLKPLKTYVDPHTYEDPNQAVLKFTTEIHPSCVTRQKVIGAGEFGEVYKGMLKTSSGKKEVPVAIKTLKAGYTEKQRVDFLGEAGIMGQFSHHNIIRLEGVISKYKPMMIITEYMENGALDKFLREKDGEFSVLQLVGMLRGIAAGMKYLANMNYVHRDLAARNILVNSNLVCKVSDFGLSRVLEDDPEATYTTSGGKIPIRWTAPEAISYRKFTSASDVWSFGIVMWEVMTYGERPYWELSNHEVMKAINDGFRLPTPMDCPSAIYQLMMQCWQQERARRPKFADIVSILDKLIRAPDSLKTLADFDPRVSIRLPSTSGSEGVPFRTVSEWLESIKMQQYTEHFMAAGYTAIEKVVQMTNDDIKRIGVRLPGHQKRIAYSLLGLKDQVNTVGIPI

[9] = molecular target: panel of 468 diverse kinases (Homo sapiens, UniProt P43403); conditions: ZAP70; 1000 nM; read-out: Percent Control
[10] = molecular target: panel of 468 diverse kinases (Homo sapiens, UniProt P49759); conditions: CLK1; 1000 nM; read-out: Percent Control
[11] = molecular target: panel of 468 diverse kinases (Homo sapiens, UniProt P49840); conditions: GSK3A; 1000 nM; read-out: Percent Control
panel of 468 diverse kinases (Homo sapiens, UniProt P49840), sequence (P49840 2-483 limits assumed): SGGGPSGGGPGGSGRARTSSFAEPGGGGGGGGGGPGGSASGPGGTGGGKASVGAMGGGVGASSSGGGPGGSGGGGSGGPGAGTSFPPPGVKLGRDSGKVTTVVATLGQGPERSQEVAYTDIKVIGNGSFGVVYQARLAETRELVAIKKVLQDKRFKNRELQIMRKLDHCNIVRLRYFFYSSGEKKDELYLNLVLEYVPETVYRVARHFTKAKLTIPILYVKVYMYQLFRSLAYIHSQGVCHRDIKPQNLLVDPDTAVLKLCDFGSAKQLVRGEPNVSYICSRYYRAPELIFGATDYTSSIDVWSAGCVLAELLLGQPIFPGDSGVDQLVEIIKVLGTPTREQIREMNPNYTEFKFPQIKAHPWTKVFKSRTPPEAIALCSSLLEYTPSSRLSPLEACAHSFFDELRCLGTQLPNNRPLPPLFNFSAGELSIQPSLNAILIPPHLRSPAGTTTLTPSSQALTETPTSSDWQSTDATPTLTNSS

[12] = molecular target: panel of 468 diverse kinases (Homo sapiens, UniProt P51812); conditions: 1000 nM, read-out: Percent Control
[13] = molecular target: panel of 468 diverse kinases (Homo sapiens, UniProt P54753); conditions: EPHB3; 1000 nM; read-out: Percent Control
panel of 468 diverse kinases (Homo sapiens, UniProt P54753), sequence (P54753 34-998 limits assumed): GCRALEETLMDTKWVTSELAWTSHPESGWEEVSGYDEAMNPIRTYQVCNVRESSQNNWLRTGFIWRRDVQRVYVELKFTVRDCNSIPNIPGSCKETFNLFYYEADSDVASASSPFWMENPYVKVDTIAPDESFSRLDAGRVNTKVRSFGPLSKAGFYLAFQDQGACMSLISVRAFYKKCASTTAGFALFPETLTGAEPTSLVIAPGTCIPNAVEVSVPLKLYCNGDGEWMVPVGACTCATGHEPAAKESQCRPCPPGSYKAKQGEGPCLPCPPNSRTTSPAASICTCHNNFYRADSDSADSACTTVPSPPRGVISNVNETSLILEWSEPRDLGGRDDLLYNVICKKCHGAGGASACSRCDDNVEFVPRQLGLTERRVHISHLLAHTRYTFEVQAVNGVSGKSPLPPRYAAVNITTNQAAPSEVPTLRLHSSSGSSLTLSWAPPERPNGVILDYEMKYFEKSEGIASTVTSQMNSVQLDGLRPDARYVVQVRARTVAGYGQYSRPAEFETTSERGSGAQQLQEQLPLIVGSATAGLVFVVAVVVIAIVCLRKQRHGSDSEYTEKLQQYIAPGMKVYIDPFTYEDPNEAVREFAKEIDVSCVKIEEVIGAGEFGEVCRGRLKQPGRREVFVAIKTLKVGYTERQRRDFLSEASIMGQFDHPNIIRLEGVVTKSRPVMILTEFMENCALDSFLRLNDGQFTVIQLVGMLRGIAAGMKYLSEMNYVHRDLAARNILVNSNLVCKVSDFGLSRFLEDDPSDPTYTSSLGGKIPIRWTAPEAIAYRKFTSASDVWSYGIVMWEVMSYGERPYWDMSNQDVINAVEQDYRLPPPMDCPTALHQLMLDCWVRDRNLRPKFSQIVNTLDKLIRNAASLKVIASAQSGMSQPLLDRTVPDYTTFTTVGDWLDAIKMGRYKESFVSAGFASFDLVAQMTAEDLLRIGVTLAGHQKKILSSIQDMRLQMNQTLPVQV

[14] = molecular target: panel of 468 diverse kinases (Homo sapiens, UniProt Q00537); conditions: PCTK2; 1000 nM; read-out: Percent Control
[15] = molecular target: panel of 468 diverse kinases (Homo sapiens, UniProt Q08345); conditions: DDR1; 1000 nM; read-out: Percent Control
[16] = molecular target: panel of 468 diverse kinases (Homo sapiens, UniProt Q12866); conditions: MERTK; 1000 nM; read-out: Percent Control
[17] = molecular target: panel of 468 diverse kinases (Homo sapiens, UniProt Q13164); conditions: ERK5; 1000 nM; read-out: Percent Control
[18] = molecular target: panel of 468 diverse kinases (Homo sapiens, UniProt Q13177); conditions: PAK2; 1000 nM; read-out: Percent Control
[19] = molecular target: panel of 468 diverse kinases (Homo sapiens, UniProt Q13882); conditions: BRK; 1000 nM; read-out: Percent Control
[20] = molecular target: panel of 468 diverse kinases (Homo sapiens, UniProt Q14012); conditions: CAMK1; 1000 nM; read-out: Percent Control
[21] = molecular target: panel of 468 diverse kinases (Homo sapiens, UniProt Q6XUX3); conditions: RIPK5; 1000 nM; read-out: Percent Control
[22] = molecular target: panel of 468 diverse kinases (Homo sapiens, UniProt Q7L7X3); conditions: TAOK1; 1000 nM; read-out: Percent Control
[23] = molecular target: panel of 468 diverse kinases (Homo sapiens, UniProt Q8IVH8); conditions: MAP4K3; 1000 nM; read-out: Percent Control
[24] = molecular target: panel of 468 diverse kinases (Homo sapiens, UniProt Q8IYT8); conditions: ULK2; 1000 nM; read-out: Percent Control
[25] = molecular target: panel of 468 diverse kinases (Homo sapiens, UniProt Q8WTQ7); conditions: GRK7; 1000 nM; read-out: Percent Control
[26] = molecular target: panel of 468 diverse kinases (Homo sapiens, UniProt Q96PY6); conditions: NEK1; 1000 nM; read-out: Percent Control
[27] = molecular target: panel of 468 diverse kinases (Homo sapiens, UniProt Q9H093); conditions: SNARK; 1000 nM; read-out: Percent Control
[28] = molecular target: panel of 468 diverse kinases (Homo sapiens, UniProt Q9H0K1); conditions: SIK2; 1000 nM; read-out: Percent Control
[29] = molecular target: panel of 468 diverse kinases (Homo sapiens, UniProt Q9H422); conditions: HIPK3; 1000 nM; read-out: Percent Control
[30] = molecular target: panel of 468 diverse kinases (Homo sapiens, UniProt Q9NRM7); conditions: LATS2; 1000 nM; read-out: Percent Control
[31] = molecular target: panel of 468 diverse kinases (Homo sapiens, UniProt Q9Y243); conditions: AKT3; 1000 nM; read-out: Percent Control

COc1cc2nc(NC3CC3)nc(NC3CCN(C(C)C)CC3)c2cc1OC [Formula IV]
remaining activity at 1 µM [1]: 60% | remaining activity at 1 µM [2]: 100% | remaining activity at 1 µM ([3]; KIT-autoinhibited): 57% | remaining activity at 1 µM ([3]; KIT): 95% | remaining activity at 1 µM [4]: 76% | remaining activity at 1 µM [5]: 95% | remaining activity at 1 µM [6]: 100% | remaining activity at 1 µM [7]: 100% | remaining activity at 1 µM [8]: 100% | remaining activity at 1 µM [9]: 91% | remaining activity at 1 µM [10]: 96% | remaining activity at 1 µM [11]: 95% | remaining activity at 1 µM ([12]; RSK2(Kin.Dom.1-N-terminal)): 67% | remaining activity at 1 µM ([12]; RSK2(Kin.Dom.2-C-terminal)): 53% | remaining activity at 1 µM [13]: 100% | remaining activity at 1 µM [14]: 94% | remaining activity at 1 µM [15]: 88% | remaining activity at 1 µM [16]: 70% | remaining activity at 1 µM [17]: 86% | remaining activity at 1 µM [18]: 63% | remaining activity at 1 µM [19]: 100% | remaining activity at 1 µM [20]: 91% | remaining activity at 1 µM [21]: 54% | remaining activity at 1 µM [22]: 100% | remaining activity at 1 µM [23]: 91% | remaining activity at 1 µM [24]: 59% | remaining activity at 1 µM [25]: 90% | remaining activity at 1 µM [26]: 100% | remaining activity at 1 µM [27]: 57% | remaining activity at 1 µM [28]: 81% | remaining activity at 1 µM [29]: 61% | remaining activity at 1 µM [30]: 95% | remaining activity at 1 µM [31]: 91%
